This is an account of results in patent US9750748B2, “Pyridazinones as DAAO enzyme inhibitors” (TAKEDA PHARMACEUTICAL COMPANY LIMITED, priority 2012, dated 2017).

The target in this assay is Human DAAO enzyme (Homo sapiens (Human), UniProt P14920). As to the kind of experiment: In Vitro DAAO Enzyme Assay (Amplex Red detection of H2O2 from D-Serine). It is filed as biochemical. Particulars: inhibition of DAAO activity in the presence of 10 mM D-Serine; 60 minutes at 25° C. Here is the method:
In Vitro DAAO Enzyme Assay
The functional activity of compounds inhibiting the DAAO enzyme was determined by utilizing the co-product of the catalysis of D-Serine, H2O2, which can be quantitatively measured using the ‘Amplex’ (trade mark) Red (Invitrogen) detection. ‘Amplex’ Red reagent is a colorless substrate that reacts with hydrogen peroxide (H2O2) with a 1:1 stoichiometry to produce highly fluorescent resorufin (excitation/emission maxima=570/585 nm).
The Km of D-Serine was measured for each enzyme batch to maintain consistency; this Km was used in subsequent assays.
On the day of the assay compounds were serially diluted in DMSO before being diluted 1:20 with assay buffer (20 mM Tris ph 7.4). […] Finally 5 μl ‘Amplex’ red reagent (Invitrogen) was added to all wells as per manufacturer's protocol. The plate was incubated for 60 minutes in the dark at 25° C. and the fluorescence in each well was measured in the Envision plate reader.
Concentration response curves were generated using the average of duplicate wells for each data point and analyzed using non-linear regression and four parameter curve fit.

For orientation: IC50 means the concentration at which inhibition is half-maximal.

The structures appear in SMILES notation.

Sequence of Human DAAO enzyme (P14920 whole entry): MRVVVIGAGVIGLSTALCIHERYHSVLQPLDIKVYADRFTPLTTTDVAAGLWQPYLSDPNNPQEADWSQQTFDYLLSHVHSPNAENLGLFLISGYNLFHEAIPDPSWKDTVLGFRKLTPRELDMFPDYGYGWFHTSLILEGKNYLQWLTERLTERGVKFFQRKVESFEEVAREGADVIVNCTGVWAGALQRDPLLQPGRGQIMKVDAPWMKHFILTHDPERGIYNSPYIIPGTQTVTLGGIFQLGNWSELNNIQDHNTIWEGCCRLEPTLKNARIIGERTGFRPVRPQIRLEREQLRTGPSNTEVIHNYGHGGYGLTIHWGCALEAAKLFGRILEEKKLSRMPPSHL

As for `CCc1cc(O)c(=O)[nH]n1` [Example 1, 6-Ethyl-4-hydroxypyridazin-3(2H)-one], the IC50 was 0.011 µM.
Regarding `CC(C)CCc1cc(O)c(=O)[nH]n1` [Example 2, 4-Hydroxy-6-(3-methylbutyl)pyridazin-3(2H)-one], the IC50 was 0.061 µM.
Consider `O=c1[nH]nc(C2CC2)cc1O` [Example 3, 6-Cyclopropyl-4-hydroxypyridazin-3(2H)-one], for which the IC50 is 0.04 µM.
Under `O=c1[nH]nc(C2CCOCC2)cc1O` [Example 4, 4-Hydroxy-6-(tetrahydro-2H-pyran-4-yl)pyridazin-3(2H)-one] stands 4.1 µM; under `CC(C)Cc1cc(O)c(=O)[nH]n1` [Example 5, 4-Hydroxy-6-(2-methylpropyl)pyridazin-3(2H)-one], 0.14 µM.
On to `O=c1[nH]nc(C2CCCC2)cc1O` [Example 6, 6-Cyclopentyl-4-hydroxypyridazin-3(2H)-one], for which the IC50 was determined as 0.67 µM.
`O=c1[nH]nc(C2CCCCC2)cc1O` [Example 7, 6-Cyclohexyl-4-hydroxypyridazin-3(2H)-one]: the IC50 stood at 1.1 µM.
Under `CC(C)c1cc(O)c(=O)[nH]n1` [Example 8, 4-Hydroxy-6-isopropylpyridazin-3(2H)-one] stands 0.036 µM.
Take `O=c1[nH]nc(N2CCC2)cc1O` [Example 9, 6-(Azetidin-1-yl)-4-hydroxypyridazin-3(2H)-one]: the IC50 was 2.5 µM.
For the compound `CN(C)c1cc(O)c(=O)[nH]n1` [Example 10, 6-(Dimethylamino)-4-hydroxypyridazin-3(2H)-one], the IC50 was 0.046 µM.
Consider `CCCN(C)c1cc(O)c(=O)[nH]n1` [Example 11, 4-Hydroxy-6-(methyl(propyl)amino)pyridazin-3(2H)-one], for which the IC50 was determined as 0.18 µM.
`CCN(C)c1cc(O)c(=O)[nH]n1` [Example 12, 6-(Ethyl(methyl)amino)-4-hydroxypyridazin-3(2H)-one]: the IC50 came to 0.15 µM.
In the case of `O=c1[nH]nc(N2CCCCC2)cc1O` [Example 13, 4-Hydroxy-6-(piperidin-1-yl)pyridazin-3(2H)-one] it was 3.6 µM; in that of `CC(C)(C)c1cc(O)c(=O)[nH]n1` [Example 14, 6-tert-Butyl-4-hydroxypyridazin-3(2H)-one], 0.044 µM.
